From US5599548A, “Skin care compositions containing fatty acid amides and retinol or retinyl ester” (priority 1995, dated 1997)
“Also recorded” adds a separate entry of the source. Read-outs that look alike come from different tables or passages of the source.

Tests used:
[1] = tested on: Human keratinocytes; assay: 3H-Thymidine incorporation (keratinocyte proliferation); type: cell-based; conditions: for increase of thymidine incorporation/proliferation over ethanol control: retinol 2.5×10^-8 M; for activity at 0.025 µM: 2.5 × 10^-8 M
Description: (§1) Human keratinocytes, isolated from neonatal foreskin by trypsin treatment were grown in Dulbecco Modification Eagle (DME) Hams F12 (1:1) medium/10% fetal calf serum in the presence of irradiated 3T3 mouse fibroblasts for establishing dividing keratinocyte colonies. Cells were grown under the above condition until their second passage and kept frozen for future use. […] On day 7, when the cells were 80-90% confluent, they were trypsinized and plated in the serum-free medium for the various experiments.
The incorporation of […] by cultured keratinocytes was used as an assay of keratinocyte proliferation. Thymidine is one of four deoxynucleosides which are the monomeric units of DNA, the universal library of genetic information in the animal kingdom. Prior to cell division of a somatic cell such as a keratinocyte, the complete genome of the cell undergoing cell division is replicated. This involves large scale DNA synthesis by the cell and enables both daughter cells to receive identical copies of the genetic material. When ^3 H-thymidine is included in the culture media of keratinocytes which are synthesizing DNA in preparation for cell division then the labelled nucleoside is incorporated into the newly synthesized DNA. The extent of incorporation of ^3 H-thymidine into a population of cells is proportional to the rate of DNA synthesis by this population of cells and therefore an indication of their cellular proliferation.
Keratinocytes (that were cultured as described above) were plated in 24 well plates at a density of 40,000 cells per well in 1 ml media. After incubation for four days or until the cells were 60-70% confluent, the media was changed. Test compounds were added (in triplicate) to the wells 24 hours after the media change, and four hours later 1μCi^3 H-Thymidine in 50 μl media was added per well. Cells were incubated for a further 24 hours. Media was removed from the cells, 10% ice cold trichloroacetic acid (TCA) added and plates were incubated on ice for 30 minutes. Cells were washed five times with 5% TCA and allowed to dissolve in 500 μl 0.1M NaOH for at least one hour (usually overnight). The preparations were neutralized with 0.1M HCl; 50 μl of the cell preparation was used to determine total protein content. Disintegrations per minute (DPM) from ^3 H labelling of DNA was determined by liquid scintillation counting of […] of the cell preparation. Thymidine incorporation results were expressed as DPM/μg protein.

[2] = tested on: TGase I (keratinocyte transglutaminase level); assay: Transglutaminase (TGase I) ELISA assay (keratinocyte differentiation); type: cell-based, human
Description: as §1
During the process of terminal differentiation in the epidermis, a 15 nm thick layer of protein, known as the cornified envelope (CE) is formed on the inner surface of the cell periphery. The CE is composed of numerous distinct proteins which have been cross-linked together by the formation of N^ε -(γ-glutamyl) lysine isodipeptide bonds catalyzed by the action of at least two different transglutaminases (TGases) expressed in the epidermis. TGase I is expressed in abundance in the differentiated layers of the epidermis, especially the granular layer, but is absent in the undifferentiated basal epidermis. Thus TGase I is a useful marker of epidermal keratinocyte differentiation with high TGase I levels indicating a more differentiated state. An ELISA based TGase I assay, using a TGase I antibody, was used to assess the state of differentiation of the cultured keratinocytes in the examples that follow.
Keratinocytes (cultured as described above) were plated in 96 well plates at a density of 3,000 cells per well in 200 μl media. After incubation for four days the media was changed to media containing test compounds (six replicates per test). The cells were cultured for a further 72 hours after which time the media was aspirated and the plates stored at -70° C. Plates were removed from the freezer, and the cells washed with PBS. 100 μl sterile water was added and the cells were freeze fractured by freezing at -70° C. then thawing. The cells were incubated for one hour at room temperature (R/T) with PBS/3% BSA (wash buffer, bovine serum albumin), then rinsed with a fresh aliquot of wash buffer. Cells were incubated with 50 μl of primary antibodies monoclonal anti-human transglutaminase (IgG) obtained from Amersham (mouse) diluted 1:300 in wash buffer for one hour, 37° C. then rinsed two times with wash buffer. Cells were then incubated with 50 μl of secondary antibody (Feb fragment, peroxidase conjugated anti-mouse IgG obtaining from Amersham) diluted 1:200 in wash buffer for one hour at 37° C., then rinsed two times with wash buffer. Cells were incubated with substrate solution (4 mg o-phenylene diamine and 3.3 μl 30% H2 O2 in 10 ml 0.1M citrate buffer pH 5.0) for five minutes, R/T, in darkness (under aluminum foil). The reaction was stopped by the addition of 50 μl 4N H2 SO4. The absorbance of samples was read at 492 nm in the plate reader. Out of the six replicates, four were treated with both antibodies, two were treated only with the secondary antibody (i.e., to determine background binding of enzyme conjugated Ab). TGase levels were determined by subtracting background from the readings from each treatment and determining mean ±s.d. for the replicates exposed to both Ab.

[3] = concentrations as in the respective Example
[4] = Table 3B, RA, RP 2.5 × 10^-7 M, linoleoyl-DEA 10^-6 M, alone or combined, n = 3
[5] = Table 4A, RA, retinol 2.5 × 10^-7 M, cocoyl-DEA 10^-7 M, alone or combined, n = 3
[6] = Table 4B, RA, retinol 2.5 × 10^-8 M, cocoyl-MEA 10^-8 M, alone or combined, n = 3
[7] = Table 5B, RA, retinol 2.5 × 10^-8 M, methyl linoleate 10^-8 M, alone or combined, n = 3

SMILES: CC1=C(/C=C/C(C)=C/C=C/C(C)=C/C(=O)O)C(C)(C)CCC1 [RA, retinoic acid]
- increase of thymidine incorporation/proliferation over ethanol control ([1]; Example 2A, RA, linoleoyl-DEA 10^-9 M): 26%
- increase of thymidine incorporation/proliferation over ethanol control ([1]; Example 4C, RA, palmitoyl-MEA 10^-6 M): 16%
- increase of thymidine incorporation/proliferation over ethanol control ([1]; Example 4D, RA, linoleoyl-MEA 10^-9 M): 47%
- activity at 0.25 µM ([1]; Homo sapiens, Keratinocyte, 24 h, Table 1A, first RA/ROH pair, 2.5 × 10^-7 M, 24 h, n = 3, read-out: thymidine incorporation, % control): 118%
- activity at 0.25 µM ([1]; Homo sapiens, Keratinocyte, 24 h, Table 1A, second RA/ROH pair, 2.5 × 10^-7 M, 24 h, n = 3, read-out: thymidine incorporation, % control): 128%
- activity at 0.25 µM ([1]; Homo sapiens, Keratinocyte, 24 h, Table 1A, third RA/ROH pair, 2.5 × 10^-7 M, 24 h, n = 3, read-out: thymidine incorporation, % control): 122%
- activity at 0.0025 µM ([1]; Homo sapiens, Keratinocyte, 24 h, Table 3A, RA 2.5 × 10^-9 M, RP 2.5 × 10^-7 M, linoleoyl-DEA 10^-8 M, alone or combined, n = 3, read-out: thymidine incorporation, % control): 117%
- activity at 0.25 µM ([1]; Homo sapiens, Keratinocyte, 24 h, Table 7A, 2.5 × 10^-7 M, 24 h, n = 9, read-out: mean Thymidine incorp/μg protein ± s.d): 113 ± 10.9%
- activity at 0.25 µM ([1]; Homo sapiens, Keratinocyte, 24 h, Table 7A, 2.5 × 10^-7 M, 24 h, n = 9, read-out: thymidine incorporation, % control): 113%
- activity at 0.025 µM ([1]; Homo sapiens, Keratinocyte, 24 h, Table 7A, 24 h, n = 9, read-out: mean Thymidine incorp/μg protein ± s.d): 125 ± 13.9%
- activity at 0.025 µM ([1]; Homo sapiens, Keratinocyte, 24 h, Table 7A, 24 h, n = 9, read-out: thymidine incorporation, % control): 126%
- activity at 0.0025 µM ([1]; Homo sapiens, Keratinocyte, 24 h, Table 7A, 2.5 × 10^-9 M, 24 h, n = 9, read-out: mean Thymidine incorp/μg protein ± s.d): 121 ± 12.8%
- activity at 0.0025 µM ([1]; Homo sapiens, Keratinocyte, 24 h, Table 7A, 2.5 × 10^-9 M, 24 h, n = 9, read-out: thymidine incorporation, % control): 121%
- activation at 0.0025 µM ([1]; Homo sapiens, Keratinocyte, read-out: increase of thymidine incorporation/proliferation over ethanol control): 17%
- mean Thymidine incorp./μg protein ± s.d ([1]; Table 1A, first RA/ROH pair, 2.5 × 10^-7 M, 24 h, n = 3): 2475 ± 116 DPM/μg protein
- mean Thymidine incorp./μg protein ± s.d ([1]; Table 1A, second RA/ROH pair, 2.5 × 10^-7 M, 24 h, n = 3): 2686 ± 72 DPM/μg protein
- mean Thymidine incorp./μg protein ± s.d ([1]; Table 1A, third RA/ROH pair, 2.5 × 10^-7 M, 24 h, n = 3): 2556 ± 80 DPM/μg protein
- mean Thymidine incorp./μg protein ± s.d ([1]; Table 2A, RA, ROH 2.5 × 10^-8 M, linoleoyl-DEA 10^-9 M, alone or combined, 24 h, normalized to ethanol control, n = 9): 1.255 ± 0.139
- mean Thymidine incorp./μg protein ± s.d ([1]; Table 3A, RA 2.5 × 10^-9 M, RP 2.5 × 10^-7 M, linoleoyl-DEA 10^-8 M, alone or combined, n = 3): 1990 ± 61 DPM/μg protein
- mean Thymidine incorp./μg protein ± s.d ([1]; Table 4C, RA, retinol 2.5 × 10^-8 M, palmitoyl-MEA 10^-6 M, alone or combined, control = 1.000, n = 3): 1.164 ± 0.113
- thymidine incorporation, % control ([1]; Table 4C, RA, retinol 2.5 × 10^-8 M, palmitoyl-MEA 10^-6 M, alone or combined, n = 3, 1440 min): 116%
- thymidine incorporation, % control ([1]; Table 4D, RA, ROH 2.5 × 10^-8 M, linoleoyl-MEA 10^-9 M, alone or combined, 24 h, n = 3): 147%
- mean Thymidine incorp./μg protein ± s.d ([1]; Table 4D, RA, ROH 2.5 × 10^-8 M, linoleoyl-MEA 10^-9 M, alone or combined, 24 h, normalized to ethanol control, n = 3): 1.47 ± 0.36
- effect on keratinocyte proliferation, in words [1, 3]: significantly increased keratinocyte proliferation; also recorded: increased thymidine incorporation
- activity at 0.25 µM ([2]; Homo sapiens, Keratinocyte, 72 h, Table 1B, 2.5 × 10^-7 M, 72 h, n = 3, read-out: Transglutaminase level, % control): 20%
- activity at 0.025 µM ([2]; Homo sapiens, Keratinocyte, 72 h, Table 1B, 2.5 × 10^-8 M, 72 h, n = 3, read-out: Transglutaminase level, % control): 62%
- activity at 0.0025 µM ([2]; Homo sapiens, Keratinocyte, 72 h, Table 1B, 2.5 × 10^-9 M, 72 h, n = 3, read-out: Transglutaminase level, % control): 84%
- activity at 1 µM ([2]; Homo sapiens, Keratinocyte, Table 5A, RA, retinol 2.5 × 10^-7 M, linoleic acid 10^-6 M, alone or combined, n = 3, read-out: TGase (TG1) level, % control): 0%
- activity at 0.25 µM ([2]; Homo sapiens, Keratinocyte, Table 8A, 2.5 × 10^-7 M, n = 3, read-out: TGase, % control): 34%
- activity at 0.025 µM ([2]; Homo sapiens, Keratinocyte, Table 8A, 2.5 × 10^-8 M, n = 3, read-out: TGase, % control): 64%
- activity at 0.0025 µM ([2]; Homo sapiens, Keratinocyte, Table 8A, 2.5 × 10^-9 M, n = 3, read-out: TGase, % control): 87%
- activity at 0.25 µM ([2]; Homo sapiens, Keratinocyte, Table 8B, 2.5 × 10^-7 M, n = 3, read-out: TGase, % control): 12%
- mean Transglutaminase ELISA level ± s.d ([2]; Table 1B, 2.5 × 10^-7 M, 72 h, n = 3): 0.088 ± 0.015
- mean Transglutaminase ELISA level ± s.d ([2]; Table 1B, 2.5 × 10^-8 M, 72 h, n = 3): 0.268 ± 0.068
- mean Transglutaminase ELISA level ± s.d ([2]; Table 1B, 2.5 × 10^-9 M, 72 h, n = 3): 0.360 ± 0.067
- TGase (TG1) level, % control ([2]; Table 2B, RA, ROH 2.5 × 10^-7 M, linoleoyl-DEA 10^-6 M, alone or combined, 72 h, n = 9): 28%
- mean TGase ± s.d ([2]; Table 2B, RA, ROH 2.5 × 10^-7 M, linoleoyl-DEA 10^-6 M, alone or combined, 72 h, normalized to ethanol control, n = 9): 0.283 ± 0.470
- TGase (TG1) level, % control [2, 4]: 33%
- mean TGase ± s.d [2, 4]: 0.073 ± 0.022
- TGase (TG1) level, % control [2, 5]: 33%
- mean TGase ± s.d [2, 5]: 0.058 ± 0.098
- TGase (TG1) level, % control [2, 6]: 29%
- mean TGase ± s.d [2, 6]: 0.036 ± 0.009
- mean TGase ± s.d ([2]; Table 5A, RA, retinol 2.5 × 10^-7 M, linoleic acid 10^-6 M, alone or combined, n = 3): -0.004 ± 0.103
- TGase (TG1) level, % control [2, 7]: 32%
- mean TGase ± s.d [2, 7]: 0.092 ± 0.030
- mean TGase level ± s.d ([2]; Table 6A (Effect on Keratinocyte TGase), RA, ROH 2.5 × 10^-7 M, formamide 10^-7 M, alone or combined, 72 h, n = 3): 0.137 ± 0.024
- TGase (TG1) level, % control ([2]; Table 6A, RA, ROH 2.5 × 10^-7 M, formamide 10^-7 M, alone or combined, 72 h, n = 3): 28%
- mean TGase level ± s.d ([2]; Table 6B (Effect on Keratinocyte TGase), RA, ROH 2.5 × 10^-7 M, acetamide 10^-7 M, alone or combined, 72 h, n = 3): 0.226 ± 0.069
- TGase (TG1) level, % control ([2]; Table 6B, RA, ROH 2.5 × 10^-7 M, acetamide 10^-7 M, alone or combined, 72 h, n = 3): 46%
- mean TGase level ± s.d ([2]; Table 6C (Effect on Keratinocyte TGase), RA, ROH 2.5 × 10^-7 M, pentanoyl-DEA 10^-7 M, alone or combined, 72 h, n = 3): 0.088 ± 0.015
- mean TGase ± s.d ([2]; Table 8A, 2.5 × 10^-7 M, n = 3): 0.073 ± 0.022
- mean TGase ± s.d ([2]; Table 8A, 2.5 × 10^-8 M, n = 3): 0.138 ± 0.034
- mean TGase ± s.d ([2]; Table 8A, 2.5 × 10^-9 M, n = 3): 0.190 ± 0.091
- mean TGase ± s.d ([2]; Table 8B, 2.5 × 10^-7 M, n = 3): 0.015 ± 0.025
- effect on keratinocyte TG1 levels / differentiation, in words [2, 3]: decreased keratinocyte differentiation; also recorded: repressed keratinocyte TG 1 levels completely; also recorded: significantly decreased keratinocyte TGase levels; also recorded: decreased transglutaminase I levels
